Ki, IC50 and EC50 data for 18 molecules are collected here from BindingDB's records for doi:10.1021/jm00213a022 (Sichuan University, 2021).

Peptide text beside a SMILES is read from it. * marks the point of attachment. Cbz = O=C(OCc1ccccc1)*

Test [1] deals with T1, Procathepsin L (Homo sapiens, UniProt P07711). Nature of the test: Binding affinity to Cathepsin L (unknown origin) assessed as inhibition constant.
The target in test [2] is T2, Proteasome subunit beta type-7 (Homo sapiens, UniProt Q99436).
T2 sequence (Q99436 whole entry): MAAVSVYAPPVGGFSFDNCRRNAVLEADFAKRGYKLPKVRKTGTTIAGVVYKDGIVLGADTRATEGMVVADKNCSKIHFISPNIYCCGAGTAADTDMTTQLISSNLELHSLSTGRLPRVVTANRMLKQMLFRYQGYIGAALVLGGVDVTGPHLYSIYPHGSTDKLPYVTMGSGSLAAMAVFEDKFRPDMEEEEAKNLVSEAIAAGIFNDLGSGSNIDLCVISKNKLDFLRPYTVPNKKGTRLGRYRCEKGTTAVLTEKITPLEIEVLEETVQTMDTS
The test can be described thus: Inhibition of beta2 proteasome (unknown origin).

The target of test [3] is 72 kDa type IV collagenase (Homo sapiens, UniProt P08253). The test can be described thus: Inhibition of MMP-2 (unknown origin).
The target of test [4] is Matrix metalloproteinase-9 (Homo sapiens, UniProt P14780). Nature of the test: Inhibition of MMP-9 (unknown origin).
The target in test [5] is T3, Proteasome subunit beta type-5 (Homo sapiens, UniProt P28074).
T3 sequence (P28074 whole entry): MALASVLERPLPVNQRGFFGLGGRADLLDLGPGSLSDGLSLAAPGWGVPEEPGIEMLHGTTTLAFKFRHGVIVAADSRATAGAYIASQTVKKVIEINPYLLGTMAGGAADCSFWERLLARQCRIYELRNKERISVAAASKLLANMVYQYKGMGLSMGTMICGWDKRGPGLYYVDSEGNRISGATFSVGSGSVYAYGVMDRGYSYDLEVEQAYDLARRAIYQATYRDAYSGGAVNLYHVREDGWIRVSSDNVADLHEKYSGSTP
Nature of the test: Inhibition of beta5 proteasome (unknown origin).

For test [6], the target named is ATP-dependent Clp protease proteolytic subunit, mitochondrial (Homo sapiens, UniProt Q16740). Nature of the test: Agonist activity at human recombinant CLpP (57 to 277 amino acids) expressed in Escherichia coli using fluorogenic peptide AC-WLA-AMC as substrate incubated for 10 mins by fluorescence based assay.
For the next test, the target named is T4, Cathepsin K (Homo sapiens, UniProt P43235).
T4 sequence (P43235 whole entry): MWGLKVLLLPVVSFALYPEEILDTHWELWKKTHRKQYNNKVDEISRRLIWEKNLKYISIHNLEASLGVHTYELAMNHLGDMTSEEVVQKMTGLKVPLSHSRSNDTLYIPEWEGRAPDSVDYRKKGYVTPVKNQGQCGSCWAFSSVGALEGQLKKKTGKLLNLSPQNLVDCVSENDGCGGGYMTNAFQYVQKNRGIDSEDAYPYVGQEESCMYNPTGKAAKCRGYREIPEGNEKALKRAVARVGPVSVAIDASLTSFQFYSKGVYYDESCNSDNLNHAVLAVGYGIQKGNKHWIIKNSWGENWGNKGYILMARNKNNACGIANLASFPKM
The test can be described thus: Inhibition of human cathepsin K.

Test [7] addresses T1, Procathepsin L. Nature of the test: Inhibition of human cathepsin L.
For test [8], the target named is T5, Proteasome subunit beta type-1 (Homo sapiens, UniProt P20618).
T5 sequence (P20618 whole entry): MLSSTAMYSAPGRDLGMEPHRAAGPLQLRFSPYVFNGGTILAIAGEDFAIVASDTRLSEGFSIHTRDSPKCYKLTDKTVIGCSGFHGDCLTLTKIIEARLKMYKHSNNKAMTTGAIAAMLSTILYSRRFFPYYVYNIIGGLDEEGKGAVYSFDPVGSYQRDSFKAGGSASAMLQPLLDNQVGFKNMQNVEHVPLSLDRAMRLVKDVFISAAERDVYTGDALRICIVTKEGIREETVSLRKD
The test can be described thus: Inhibition of beta 1 proteasome (unknown origin).

Sequence of ATP-dependent Clp protease proteolytic subunit, mitochondrial (Q16740 whole entry, the tested form may be a part): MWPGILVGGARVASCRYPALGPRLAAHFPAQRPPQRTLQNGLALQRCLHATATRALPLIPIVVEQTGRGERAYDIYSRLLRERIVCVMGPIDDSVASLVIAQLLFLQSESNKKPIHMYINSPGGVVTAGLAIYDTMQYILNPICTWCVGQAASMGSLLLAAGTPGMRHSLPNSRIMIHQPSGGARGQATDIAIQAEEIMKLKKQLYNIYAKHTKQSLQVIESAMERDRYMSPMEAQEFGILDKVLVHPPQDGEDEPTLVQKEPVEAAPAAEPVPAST
Sequence of Matrix metalloproteinase-9 (P14780 whole entry): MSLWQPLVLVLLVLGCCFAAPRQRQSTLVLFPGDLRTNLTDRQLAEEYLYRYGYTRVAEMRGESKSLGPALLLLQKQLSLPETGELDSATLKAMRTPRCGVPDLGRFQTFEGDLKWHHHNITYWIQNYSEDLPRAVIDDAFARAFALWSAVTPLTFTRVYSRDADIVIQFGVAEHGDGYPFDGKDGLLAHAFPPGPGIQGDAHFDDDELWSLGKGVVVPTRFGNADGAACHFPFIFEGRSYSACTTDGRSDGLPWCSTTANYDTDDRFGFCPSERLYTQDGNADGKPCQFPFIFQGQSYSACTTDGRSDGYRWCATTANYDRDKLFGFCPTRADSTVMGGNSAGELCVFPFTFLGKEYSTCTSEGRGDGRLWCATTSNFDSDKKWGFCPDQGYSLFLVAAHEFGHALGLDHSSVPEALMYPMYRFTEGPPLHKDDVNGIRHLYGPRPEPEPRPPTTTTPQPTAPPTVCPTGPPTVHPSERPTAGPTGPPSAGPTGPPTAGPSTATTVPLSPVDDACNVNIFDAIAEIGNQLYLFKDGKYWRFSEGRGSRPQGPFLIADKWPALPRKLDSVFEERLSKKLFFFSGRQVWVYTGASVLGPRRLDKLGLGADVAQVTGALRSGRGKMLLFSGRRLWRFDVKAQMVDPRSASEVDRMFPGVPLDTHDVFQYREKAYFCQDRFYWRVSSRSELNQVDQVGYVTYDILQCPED
Sequence of 72 kDa type IV collagenase (P08253 whole entry): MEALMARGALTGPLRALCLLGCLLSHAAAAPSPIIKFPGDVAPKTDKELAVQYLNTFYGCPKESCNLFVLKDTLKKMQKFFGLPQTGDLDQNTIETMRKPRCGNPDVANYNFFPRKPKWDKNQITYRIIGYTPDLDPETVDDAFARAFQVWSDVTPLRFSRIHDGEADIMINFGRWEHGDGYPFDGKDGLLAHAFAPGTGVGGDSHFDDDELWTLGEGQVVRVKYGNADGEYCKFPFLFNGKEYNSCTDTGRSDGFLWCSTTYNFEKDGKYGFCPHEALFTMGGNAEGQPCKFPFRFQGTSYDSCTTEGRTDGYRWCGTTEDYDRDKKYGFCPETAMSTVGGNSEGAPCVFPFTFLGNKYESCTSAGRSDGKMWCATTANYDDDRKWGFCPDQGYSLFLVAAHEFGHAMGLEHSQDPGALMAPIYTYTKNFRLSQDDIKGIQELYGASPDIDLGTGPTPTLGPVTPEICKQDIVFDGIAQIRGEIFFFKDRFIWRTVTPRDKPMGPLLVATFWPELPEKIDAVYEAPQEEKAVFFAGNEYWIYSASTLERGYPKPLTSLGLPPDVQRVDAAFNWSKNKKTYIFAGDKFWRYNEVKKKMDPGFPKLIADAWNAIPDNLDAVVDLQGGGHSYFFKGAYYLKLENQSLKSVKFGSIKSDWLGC
T1 sequence (P07711 whole entry): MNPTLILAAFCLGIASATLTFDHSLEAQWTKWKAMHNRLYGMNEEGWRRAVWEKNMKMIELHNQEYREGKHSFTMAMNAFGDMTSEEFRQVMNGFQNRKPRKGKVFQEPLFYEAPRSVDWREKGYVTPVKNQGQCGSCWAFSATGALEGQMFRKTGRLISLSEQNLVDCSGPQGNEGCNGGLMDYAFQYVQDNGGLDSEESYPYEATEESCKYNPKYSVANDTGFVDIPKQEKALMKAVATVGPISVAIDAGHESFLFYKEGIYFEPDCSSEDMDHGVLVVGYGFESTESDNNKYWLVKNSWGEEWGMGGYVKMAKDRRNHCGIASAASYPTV

For `CC(C)C[C@H](NC(=O)OC(C)(C)C)C(=O)N1C[C@H]1C(=O)N1[C@H](C(=O)OCc2ccccc2)[C@@H]1C(=O)OCc1ccccc1`, the Ki (as a rule, the equilibrium dissociation constant of an inhibitor or competing ligand from its target) at Procathepsin L [1] worked out at 13 nM.

As for `CC(C)C[C@@H](C=O)NC(=O)[C@H](CC(C)C)NC(=O)[C@H](CC(C)C)NC(=O)OCc1ccccc1` [{1-[(S)-(S)-1-((S)-1-Formyl-3-methyl-butylcarbamoyl)-3-methyl-butylcarbamoyl]-3-methyl-butyl}-carbamic acid benzyl ester] (Cbz-Leu-Leu-Leu-aldehyde), inhibition in [2] was half-maximal at 1080 nM (IC50).

For `COc1ccc(S(=O)(=O)N(Cc2cccnc2)[C@@H](CCF)C(=O)NO)cc1`, the IC50 (as a rule, the concentration at which inhibition is half-maximal) in test [3] is 33 nM; in test [4], 3 nM.

For `CC(C)N1CCN(C2(c3ccc(Oc4ccc(Br)cc4)cc3)C(=O)NC(=O)NC2=O)CC1` [5-[4-(4-Bromo-phenoxy)-phenyl]-5-(4-isopropyl-piperazin-1-yl)-pyrimidine-2,4,6-trione], the IC50 in [3] worked out at 26 nM; in test [4], 1 nM.

As for `CC(C)C[C@H](NC(=O)CNC(=O)c1cc(Cl)ccc1Cl)B(O)O`, the IC50 in test [2] came to 3500 nM.

For the molecule `CC(C)C[C@H](NC(=O)[C@@H](NC(=O)c1cccc(-c2ccccc2)n1)[C@@H](C)O)B(O)O` [(R)-1-((2S,3R)-3-hydroxy-2-(6-phenylpicolinamido)butanamido)-3-methylbutylboronic acid], in [5], the midpoint of inhibition, the IC50, lay at 1.5 nM.

For the molecule `Cn1c2c(c(=O)n(Cc3ccc(Cl)cc3)c1=O)CN(Cc1cccc(C#N)c1)CC2`, in [6], the EC50 was 135 nM.

In the case of `N#Cc1cccc(CN2CCC3=C(C2)C(=O)N(Cc2ccc(C(F)(F)F)cc2)C2=NCCN23)c1`, in [6], the EC50 was 120 nM.

Consider `CCc1ccc(C#Cc2ccc(S(=O)(=O)N[C@H](C(=O)O)C(C)C)s2)cc1`, for which the figures for the IC50 in [3] and in test [4] were 4.8 nM and 4.4 nM, respectively.

As to `N#Cc1cccc(CN2CCC3=C(C2)C(=O)N(Cc2ccc(Cl)cc2)C2=NCCN23)c1`, the EC50 in test [6] is 120 nM.

On to `O=C(c1ccccc1)c1ccc(S(=O)(=O)CC(CCCc2ccccc2)C(=O)NO)cc1` (configuration not stated) [2-(4-Benzoyl-benzenesulfonylmethyl)-5-phenyl-pentanoic acid hydroxyamide], for which the IC50 in [3] turned out to be 4 nM; in test [4] it was 5 nM.

Consider `CC(C)[C@H](O)C12NC(=O)[C@H](C)[C@@H]1OC2=O` (some centres not stated), for which the IC50 in test [5] amounted to 47 nM.

In the case of `CCN([C@@H](C(=O)O)C(C)C)S(=O)(=O)c1ccc(-c2nc(-c3ccc(C)s3)no2)cc1`, the IC50 in test [3] is 3.7 nM; in test [4], 36 nM.

For the molecule `N#CN1CC(CNC(=O)C2CCCCC2)C1` [Cyclohexanecarboxylic acid (1-cyano-azetidin-3-ylmethyl)-amide], the IC50 against Cathepsin K is 5 nM; on Procathepsin L [7], 6 nM.

Consider `COc1ccc(-c2ccc(S(=O)(=O)N(OC(C)C)[C@H](CCC3C(=O)c4ccccc4C3=O)C(=O)NO)cc2)cc1`, for which the IC50 in test [3] was 0.67 nM; in test [4], 0.43 nM.

As to `C#Cc1cccc(CN2CCC3=C(C2)C(=O)N(Cc2ccc(C)cc2)C2=NCCN23)c1`, the EC50 in test [6] was 800 nM.

Consider `O=C1NC2([C@@H](O)[C@@H]3C=CCCC3)C(=O)O[C@H]2[C@H]1CCCl` (some centres not stated), for which the IC50 in test [8] was found to be 33 nM; in test [2], 8 nM; in test [5], 2.6 nM.

As to `Cc1cccc(CN2CCc3c(c(=O)n(Cc4ccc(C(F)(F)F)cc4)c(=O)n3CCCN)C2)c1`, the EC50 in test [6] turned out to be 120 nM.
